For assay [1], the target named is T1, hMAO-B (Homo sapiens, UniProt P27338).
T1 construct: purchased Sigma Aldrich; host or cells: BTI-TN-5B1-4 insect cells
T1 sequence (P27338 1-520): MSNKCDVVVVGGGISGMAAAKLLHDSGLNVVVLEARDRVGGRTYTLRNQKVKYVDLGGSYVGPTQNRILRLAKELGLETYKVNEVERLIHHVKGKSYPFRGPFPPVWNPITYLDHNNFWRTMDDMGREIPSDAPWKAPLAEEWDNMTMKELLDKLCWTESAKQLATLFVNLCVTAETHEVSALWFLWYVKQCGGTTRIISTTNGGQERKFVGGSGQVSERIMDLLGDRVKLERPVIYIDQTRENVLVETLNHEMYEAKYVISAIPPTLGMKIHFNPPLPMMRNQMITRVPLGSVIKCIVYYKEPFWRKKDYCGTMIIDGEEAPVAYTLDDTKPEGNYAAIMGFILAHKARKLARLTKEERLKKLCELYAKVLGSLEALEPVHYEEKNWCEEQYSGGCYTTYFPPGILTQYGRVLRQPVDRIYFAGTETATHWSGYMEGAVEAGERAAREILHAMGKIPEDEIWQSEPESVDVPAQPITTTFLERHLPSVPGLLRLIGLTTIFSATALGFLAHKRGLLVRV
Format: biochemical. The conditions noted are these: read-out: IC50 ± SEM hMAO-B.

Assay [2] deals with hBChE (Homo sapiens, UniProt P06276). The assay can be described thus: biochemical. Format: biochemical.
Assay [3] can be described thus: DPPH radical-scavenging assay. To be noted: read-out: free-radical scavenging potency EC50 ± SEM (concentration that scavenged 50% of the DPPH free radicals); DPPH in MeOH, 90 min, room temperature, dark. The procedure: Free-radical scavenging potency was evaluated using the DPPH assay. […] The microtiter plate was incubated at room temperature in the dark for 90 min. The absorbance at 517 nm was then determined with a microplate reader (Synergy HT; BioTek Instruments, Inc., VT, USA). The experiments were performed in triplicate, with subtraction of the blank value (compound without DPPH). The percentages of DPPH free radicals were calculated as DPPH free radical (%)=[(A0−A1)/A0]×100, where A0 is the absorbance of the negative control, and A1 is the absorbance of the test sample. […] Resveratrol and Trolox were used as the positive controls under the same assay conditions.
On the technique in general: DPPH is a stable violet radical that fades when it is reduced.

Assay [4] in a line: Metal-chelating properties (UV-Vis spectra, Cu2+ titration, Yoe-Jones method). Format: physicochemical. To be noted: 30 μM compound; for interception point of Cu2+ titration (Yoe-Jones method): 0-150 μM Cu2+, Cu2+/compound molar ratio; for change in absorption spectra on addition of Fe2+ and Fe3+ / change in absorption spectra with Ca2+ and Mg2+: equimolar metal ion, HEPES buffer pH 7.4. Here is the method:
The chelation properties were determined in HEPES buffer (20 mM, 150 mM NaCl, pH 7.4) using a 96-well microplate reader (Synergy HT; BioTek Instruments, Inc., VT, USA). To determine the chelation of the metal ions by the compounds, 30 μM compound solution was treated with equimolar concentrations of CuCl2, ZnCl2, CoCl2, MgCl2, CaCl2, FeCl2, FeCl3, and AlCl3. To prevent oxidation of Fe^2+, the solution of FeCl2 was prepared in the presence of 1 mM ascorbic acid. The absorption spectra were recorded after 30 min incubation at room temperature. The chelation was detected by the change in the absorption spectra, which was specific for each metal ion. The Cu^2+ binding stoichiometry was resolved by titration of a 30 μM buffered solution of the compounds with additions of CuCl2 buffered stock solution. […] The absorbance differences in the absence and presence of Cu^2+ were plotted against the Cu^2+/compound molar ratio.

The target of assay [5] is hAChE (Homo sapiens, UniProt P22303). The assay can be described thus: Inhibition of cholinesterases (Ellman method). To be noted: n.a. = not active (residual activity at 100 μM ≥50%); three independent experiments; read-out: IC50 ± SEM hAChE. Format: biochemical. In general terms: Ellman's reagent forms a yellow product with free thiols.
Assay [6] is described as follows: Antioxidant capacity against hydroxyl radicals. To be noted: statement in words, no method given.
In assay [7] the test system is primary cultured neurons. The assay can be described thus: Neuroprotection of primary cultured neurons after experimental ischemia. Format: cell-based. The conditions noted are these: statement in words, no method given.
Where [8] appears, read: HEPES buffer pH 7.4, 30 min, room temperature.

Experimental findings from US20230382868A1 (priority 2022, published 2023) are described below.

Like-named read-outs stand apart in the source and are kept apart here.

Chain of hBChE (P06276 29-602): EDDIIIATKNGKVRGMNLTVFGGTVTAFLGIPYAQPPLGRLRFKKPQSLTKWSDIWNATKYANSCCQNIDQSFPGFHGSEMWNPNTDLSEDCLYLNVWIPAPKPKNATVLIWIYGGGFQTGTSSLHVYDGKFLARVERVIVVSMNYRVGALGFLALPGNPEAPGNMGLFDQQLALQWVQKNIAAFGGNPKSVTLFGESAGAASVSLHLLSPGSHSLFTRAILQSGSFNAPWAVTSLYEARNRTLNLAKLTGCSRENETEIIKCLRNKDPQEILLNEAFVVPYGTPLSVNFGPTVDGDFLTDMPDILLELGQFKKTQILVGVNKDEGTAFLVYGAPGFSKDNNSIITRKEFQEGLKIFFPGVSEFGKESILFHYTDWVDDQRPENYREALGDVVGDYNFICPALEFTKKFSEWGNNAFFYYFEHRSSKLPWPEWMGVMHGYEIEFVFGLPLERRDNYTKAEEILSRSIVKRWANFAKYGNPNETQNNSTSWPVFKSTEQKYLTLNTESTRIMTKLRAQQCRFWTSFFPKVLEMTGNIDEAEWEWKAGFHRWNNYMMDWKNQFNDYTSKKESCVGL
Chain of hAChE (P22303 32-614): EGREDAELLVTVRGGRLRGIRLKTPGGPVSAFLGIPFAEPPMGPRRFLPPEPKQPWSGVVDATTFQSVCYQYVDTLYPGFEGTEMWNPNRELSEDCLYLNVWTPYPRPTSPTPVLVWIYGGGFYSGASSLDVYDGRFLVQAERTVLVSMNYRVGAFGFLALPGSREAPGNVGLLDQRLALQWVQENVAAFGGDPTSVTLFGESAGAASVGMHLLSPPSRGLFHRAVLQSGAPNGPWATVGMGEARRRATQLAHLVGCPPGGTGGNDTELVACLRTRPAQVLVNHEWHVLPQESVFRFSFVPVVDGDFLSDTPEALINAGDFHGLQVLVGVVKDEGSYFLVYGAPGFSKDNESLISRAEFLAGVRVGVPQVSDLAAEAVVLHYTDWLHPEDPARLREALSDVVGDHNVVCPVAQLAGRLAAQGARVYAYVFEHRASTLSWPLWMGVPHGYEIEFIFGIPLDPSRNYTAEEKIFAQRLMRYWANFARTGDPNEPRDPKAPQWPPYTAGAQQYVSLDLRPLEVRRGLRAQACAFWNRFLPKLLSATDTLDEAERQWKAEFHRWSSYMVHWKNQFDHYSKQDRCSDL

For orientation: IC50 means the concentration needed to halve the response being measured. `C/[N+]([O-])=C/c1ccc2cccc(O)c2n1` [Compound 9, (Z)-1-(8-Hydroxyquinolin-2-yl)-N-methylmethanimine oxide]: in assay [1], the concentration for half-maximal inhibition (IC50) came to 10.1 ± 2.5 µM.

On to `[O-]/[N+](=C\c1ccc2cccc(OCCCN3CCCCC3)c2n1)Cc1ccccc1` [Compound 4, (Z)-N-Benzyl-1-(8-(3-(piperidin-1-yl)propoxy)quinolin-2-yl)methanimine oxide], for which the IC50 in assay [2] turned out to be 76.9 ± 6.3 nM.

Take `CC(C)(C)/[N+]([O-])=C/c1ccc2cccc(O)c2n1` [Compound 10, (Z)-N-tert-butyl-1-(8-hydroxyquinolin-2-yl)methanimine oxide]: in assay [1], the half-inhibitory concentration (IC50) is 16.4 ± 1 µM. The IC50 in assay [2] (read-out: IC50 ± SEM hBChE) is 5.1 ± 0.6 nM. In addition, in assay [3], the EC50 was determined as 119 ± 1.2 µM. Besides, in assay [4], the “interception point of Cu2+ titration (Yoe-Jones method)” value worked out at 0.5; the “change in absorption spectra on addition of Fe2+ and Fe3+” value is reported as “hyperchromic shift”; the “change in absorption spectra with Ca2+ and Mg2+” value is listed as “no major changes in absorption spectra”. In assay [4] (setting [8]), the “new absorption maximum with equimolar Al3+ (bathochromic shift)” value is on record as 296 nm, the “new absorption maximum with equimolar Cu2+ (bathochromic shift)” value worked out at 310 nm and the “new absorption maximum with equimolar Zn2+ (bathochromic shift)” value was determined as 309 nm.

Take `C#CCN1CCN(CCCOc2cccc3ccc(/C=[N+](\[O-])Cc4ccccc4)nc23)CC1` [Compound 8, (Z)-N-Benzyl-1-(8-(3-(4-(prop-2-yn-1-yl)piperazin-1-yl)propoxy)quinolin-2-yl)methanimine oxide]: the IC50 in assay [2] is 31 ± 6.4 nM.

With `C#CCN1CCN(CCCOc2cccc3ccc(/C=[N+](\[O-])C(C)(C)C)nc23)CC1` [Compound 7, (Z)-N-tert-Butyl-1-(8-(3-(4-(prop-2-yn-1-yl)piperazin-1-yl)propoxy)quinolin-2-yl)methanimine oxide], the IC50 in assay [2] (read-out: IC50 ± SEM hBChE) came out at 7.3 ± 1.1 nM.

For the compound `CC(C)(C)/[N+]([O-])=C/c1ccc2cccc(OCCCN3CCCCC3)c2n1` [Compound 3, (Z)-N-tert-Butyl-1-(8-(3-(piperidin-1-yl)propoxy)quinolin-2-yl)methanimine oxide], the IC50 in assay [2] (read-out: IC50 ± SEM hBChE) came out at 25.4 ± 2.1 nM.

Turning to `[O-]/[N+](=C\c1ccc2cccc(O)c2n1)Cc1ccccc1` [Compound 11, (Z)-N-Benzyl-1-(8-hydroxyquinolin-2-yl)methanimine oxide], in assay [5], the half-maximal inhibitory concentration (IC50) turned out to be 29 ± 3 nM. Moreover, the IC50 in assay [2] is no more than 1.1 nM. Also, the EC50 in assay [3] amounted to 126 ± 0.1 µM. Moreover, in assay [4], the “interception point of Cu2+ titration (Yoe-Jones method)” value stood at 0.5; the “change in absorption spectra on addition of Fe2+ and Fe3+” value is given as “hypochromic change in absorbance spectra”; the “change in absorption spectra with Ca2+ and Mg2+” value was “no major alterations in spectra”. Besides, the “antioxidant capacity against hydroxyl radicals” value in assay [6] is given as “striking antioxidant capacity”. In assay [7], the “neuroprotection of primary cultured neurons after experimental ischemia” value was “remarkable activity for neuroprotection”.
